Experimental data reported in patent US4051244A, “2,4-Diamino 5-bromo 6-chloro pyrimidines, process for their preparation and use as pharmaceuticals” (Mar-Pha Societe d'Etudes et d'Exploitation de Marques, priority 1975, dated 1977).

What was measured:
[1] = LD 50 in the mouse, intravenous (cumulative method of Reed and Muench); details: in vivo
Description: (§1) The toxicities of the products according to the invention have been determined on the mouse CD 1 (Charles River) by intravenous and oral methods. The lethal doses 50% (LD 50) are calculated by the cumulative method of Reed J. J. and Muench, H. (Am. J. Hyg. 27, 493, 1938).

[2] = LD 50 in the mouse, oral (cumulative method of Reed and Muench); details: in vivo
Description: as §1

[3] = test system: vomitings induced by apomorphine; assay: Anti-emetic test: vomitings induced by apomorphine in the dog, oral; type: in vivo; details: mongrel dog; for ED50: Canis lupus familiaris, read-out: DE 50, dose diminishing by 50% the number of vomitings induced by apomorphine
Description: The anti-emetic properties of the compounds according to the invention are shown by oral way in the mongrel dog in tests in which vomitings are induced by apomorphine according to Chen, G. and Ensor, C. (J. Pharmacol exp. Ther. 98, 24, 1950).
The results are expressed by a DE 50 which represents the dose of product capable of diminishing by 50% the number of vomitings induced by the agent.

[4] = test system: bronchospasms induced by serotonine; assay: Bronchospasms using serotonine in guinea pigs, intravenous; type: in vivo, Albinos Hartley guinea-pigs; details: Cavia porcellus, i.v., anesthesized guinea-pigs, read-out: DE 50, dose reducing by 50% the amplitude of bronchospasms using serotonine in guinea pigs
Description: (§2) The anti-serotonine properties of the compounds according to the invention are shown in vitro and in vivo.
In vivo, the products are applied by intra-venous way to anesthesized Albinos Hartley guinea-pigs. A method originated from Konzett, H. and Rossler, R. is employed (Naunyn. Schmiedeberg's Arch. exp. Path. Pharmakol, 195, 71, 1940). The results, shown in the table hereunder, are expressed by a DE 50 which represents the dose capable of reducing by 50% the amplitude of bronchospasms induced by the administration of serotonine.

[5] = test system: ulcer induced by reserpine; assay: Protection against the ulcer induced by reserpine in a rat, acute oral; type: in vivo, rat CD (Charles River); details: for antiulcer properties (in words): p.o., reserpine and constraint ulcer; for ED50: po, read-out: DA 50, dose protecting 50% of the animals against the ulcer induced by reserpine in a rat
Description: (§3) The anti-ulcer properties of the products according to the invention are shown in the rat CD (Charles River) by acute oral administration using two techniques.
The first technique studies the activity of the product in connection with the experimental ulcer induced by […] according to Brodie, D. A. (Gastroenterology, 43, 675, 1962). The result is expressed by a DA 50 which represents the dose in mg/kg capable of protecting 50% of the animals against the least trace of ulceration of the mucous gastric system.

[6] = test system: isolated duodenum, spasms induced by acetylcholine; assay: Spasms of the isolated duodenum of a rat induced by acetylcholine (neurotropic); details: for spasmolytic effects, both musculotropic and neurotropic (in words): acetylcholine and barium chloride
Description: (§4) The anti-spasmodic properties of the compounds according to the invention are shown by use of the technique of Magnus, R. (Ges. Physiol. 102, 123, 1904) in connection with the spasms of the isolated duodenum of a rat caused by either acetylcholine to research an effect of neurotropic type or by barium chloride to research an effect of musculotropic type.
(§5) The results, shown hereunder, are expressed by a CE 50 which represents the concentration of product in mg/1 capable of decreasing by 50% the amplitude of spasms thus induced.

[7] = test system: isolated duodenum, spasms induced by barium chloride; assay: Spasms of the isolated duodenum of a rat induced by barium chloride (musculotropic)
Description: as §4, §5

[8] = test system: isolated uterus, spasms induced by serotonine; assay: Spasms of isolated uterus of rat induced by serotonine; set-up: species or system rat CD (Charles River); details: for CE 50, spasms of isolated uterus of rat induced by serotonine: in vitro
Description: as §2
In vitro, the action of the products on the spasms induced by the serotonine in the isolated uterus of a rat (rat CD Charles River) is shown, according to the technique of Fanchamps, A., Doepfner, W., Weidman, H. and Cerletti, (A. Schw. Med. Worsch. 90, 1040, 1960). The results, shown in the table hereunder, are expressed by a CE 50 which represents the concentration in mg/1 of the product capable of decreasing by 50% the amplitude of spasms induced by the serotonine.

[9] = test system: cerebral phosphodiesterases; assay: Inhibition of the phosphodiesterases of the brain; type: biochemical, rat CD (Charles River)
Description: The phosphodiesterasic activity is shown by the method of Kukovetz E. R. and Poech, G. (Arch. Pharmakol. 1970, 267, 189) by utilizing the supernatant part obtained after centrifugation at 10,000 G of the brain of male rats CD (Charles River).
The inhibiting action of the compounds according to the invention on the cerebral phosphodiesterases has been tested and expressed by an inhibiting concentration 50% (CI 50) in micromoles.

[10] = test system: constraint ulcer; assay: Protection against constraint ulcer, acute oral; type: in vivo, rat CD (Charles River); details: p.o., rat, 24 hours constraint, read-out: DE 50, dose decreasing by 50% the ulcerating effect (constraint ulcer)
Description: as §3
The second studies the activity of the product in connection with the constraint ulcer according to Rossi, G., Bonfils, S., Leifooche, G. and Lambling A. (C.R. Soc. Biol. 150, 2124, 1956). The result is expressed by a DE 50 which represents the dose of the substance in mg/kg capable of decreasing by 50% the ulcerating effect caused by the 24 hours constraint.

In the case of `CNc1nc(Cl)c(Br)c(N2CCN(C)CC2)n1` [Example 1, 2-methylamino-4-(N-methylpiperazinyl) 5-bromo 6-chloro pyrimidine], the LD50 [1] is reported as 55 mg/kg, the LD50 [2] is reported as 100 mg/kg and the ED50 [3] is reported as 1 mg/kg. The ED50 [4] was 0.08 mg/kg.
For `CC(C)Nc1nc(N2CCN(C)CC2)nc(Cl)c1Br` [Example 2, 2-(N-methylpiperazinyl) 4,isopropylamino 5-bromo 6-chloro pyrimidine], the LD50 [1] was 83 mg/kg, the LD50 [2] was 675 mg/kg and the “antiulcer properties (in words)” value [5] was “outstanding antiulcer properties”. The ED50 [5] was 100 mg/kg, the “CE 50, concentration decreasing by 50% the amplitude of spasms induced by acetyl-choline” value [6] was 5.5 mg/L and the “CE 50, concentration decreasing by 50% the amplitude of spasms induced by barium chloride” value [7] was 3 mg/L. For the same compound, the ED50 [3] was greater than 5 mg/kg, the “CE 50, spasms of isolated uterus of rat induced by serotonine” value (“CE 50, spasms” below) [8] was 0.07 mg/L and the ED50 [4] was 0.45 mg/kg. The “inhibiting action on the cerebral phosphodiesterases (in words)” value ([9]; rat brain supernatant) was “interesting inhibiting action” and the IC50 ([9]; supernatant of brain of male rats, 10,000 G, read-out: CI 50, inhibiting concentration 50% on the cerebral phosphodiesterases) was 40 µM.
For `CC(C)Nc1nc(Cl)c(Br)c(N2CCN(C)CC2)n1` [Example 3], the LD50 [1] was 86 mg/kg, the LD50 [2] was 200 mg/kg and the “antiulcer properties (in words)” value [5] was “outstanding antiulcer properties”. The ED50 [5] was 20 mg/kg, the ED50 [10] was 12 mg/kg and the “CE 50, concentration decreasing by 50% the amplitude of spasms induced by acetyl-choline” value [6] was 1.8 mg/L. The “spasmolytic effects, both musculotropic and neurotropic (in words)” value (from here on “spasmolytic effects”) [6] was “very interesting”, the “CE 50, concentration decreasing by 50% the amplitude of spasms induced by barium chloride” value [7] was 0.6 mg/L and the ED50 [3] was 1.4 mg/kg. The “anti-emetic activity (in words)” value ([3]; apomorphine) was “very important anti-emetic activity”, the “anti-serotonine activity (in words)” value ([8]; in vitro (rat uterus) and in vivo (guinea pig)) was “very high anti-serotonine activity” and the “CE 50, spasms” value [8] was 0.004 mg/L. The ED50 [4] was 0.85 mg/kg.
In the case of `CCCCCCCNc1nc(Cl)c(Br)c(N2CCN(C)CC2)n1` [Example 4], the LD50 [2] is reported as greater than 900 mg/kg, the ED50 [5] is reported as greater than 100 mg/kg and the “CE 50, concentration decreasing by 50% the amplitude of spasms induced by acetyl-choline” value [6] is reported as 1.4 mg/L. For the same compound, the “spasmolytic effects” value [6] was “very interesting”, the “CE 50, concentration decreasing by 50% the amplitude of spasms induced by barium chloride” value [7] was 1.3 mg/L and the “CE 50, spasms” value [8] was 0.35 mg/L.
`CN1CCN(c2nc(N)nc(Cl)c2Br)CC1` [Example 6] gave an LD50 [1] of 48 mg/kg, an LD50 [2] of 600 mg/kg and an ED50 [5] greater than 100 mg/kg. For the same compound, the “CE 50, concentration decreasing by 50% the amplitude of spasms induced by acetyl-choline” value [6] was 4 mg/L, the “spasmolytic effects” value [6] was “very interesting” and the “CE 50, concentration decreasing by 50% the amplitude of spasms induced by barium chloride” value [7] was 0.2 mg/L. The “CE 50, spasms” value [8] was 0.05 mg/L.
With `Cc1ccc(N(C)c2nc(Cl)c(Br)c(N3CCN(C)CC3)n2)cc1` [Example 7] the LD50 [1] was 83 mg/kg, the LD50 [2] was greater than 900 mg/kg and the ED50 [5] was greater than 100 mg/kg. The “CE 50, concentration decreasing by 50% the amplitude of spasms induced by acetyl-choline” value [6] was 1.4 mg/L, the “spasmolytic effects” value [6] was “very interesting” and the “CE 50, concentration decreasing by 50% the amplitude of spasms induced by barium chloride” value [7] was 0.6 mg/L. For the same compound, the “CE 50, spasms” value [8] was 0.05 mg/L.
In the case of `Cc1ccc(N(C)c2nc(Cl)c(Br)c(NCCN(C(C)C)C(C)C)n2)cc1` [Example 9], the LD50 [2] is reported as 675 mg/kg, the ED50 [5] is reported as 300 mg/kg and the “CE 50, spasms” value [8] is reported as 0.33 mg/L.
